Results as given in PubChem BioAssay (NCI).
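48-hour exposure; five concentrations; linearly interpolated endpoints. Abbreviation: GI50, concentration required for 50% inhibition of growth. TGI: concentration producing complete growth inhibition.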

Experiments:
Assay in all cases: NCI anticancer screen, dose series, 48 h
MALME-3M melanoma = tested on: MALME-3M melanoma
SF-295 CNS = tested on: SF-295 CNS
A549 NSCLC = tested on: A549 NSCLC
SK-MEL-2 melanoma = tested on: SK-MEL-2 melanoma
CAKI-1 renal = tested on: CAKI-1 renal
SW-620 colon = tested on: SW-620 colon
HL-60(TB) leukemia = tested on: HL-60(TB) leukemia
OVCAR-8 ovarian = tested on: OVCAR-8 ovarian
HCC-2998 colon = tested on: HCC-2998 colon
SR leukemia = tested on: SR leukemia

Structure (SMILES) | GI50 (MALME-3M melanoma) | TGI (MALME-3M melanoma) | GI50 (SF-295 CNS) | TGI (SF-295 CNS) | GI50 (A549 NSCLC) | TGI (A549 NSCLC) | GI50 (SK-MEL-2 melanoma) | TGI (SK-MEL-2 melanoma) | GI50 (CAKI-1 renal) | TGI (CAKI-1 renal) | GI50 (SW-620 colon) | TGI (SW-620 colon) | GI50 (HL-60(TB) leukemia) | TGI (HL-60(TB) leukemia) | GI50 (OVCAR-8 ovarian) | TGI (OVCAR-8 ovarian) | GI50 (HCC-2998 colon) | TGI (HCC-2998 colon) | GI50 (SR leukemia) | TGI (SR leukemia)
CCCCCCn1c(-c2ccc(C(=O)O/N=C(\N)c3ccc4ccccc4c3)cc2)nc(-c2ccccc2)c1-c1ccccc1 | > 49.9 µM | > 100 µM | 11.8 µM | > 83.7 µM | 2.55 µM | > 100 µM | 25.6 µM | > 93.2 µM | 2.65 µM | 55.1 µM | > 100 µM | > 100 µM | 1.33 µM | > 100 µM | > 96.3 µM | > 100 µM | > 100 µM | > 100 µM | – | –
COc1ccc2cc(C(=O)/C=C/c3ccc(N(C)C)cc3)ccc2c1 | > 100 µM | > 100 µM | > 100 µM | > 100 µM | 60.3 µM | > 100 µM | 61.6 µM | > 100 µM | 67.5 µM | > 100 µM | 87.3 µM | > 100 µM | > 100 µM | > 100 µM | > 100 µM | > 100 µM | – | – | 79.1 µM | > 100 µM
CCCCNC(=O)C1C(=O)N(CCCC)C(=O)/C1=N\N (centres undefined) | – | > 100 µM | – | > 100 µM | – | – | – | > 100 µM | – | > 100 µM | – | > 100 µM | – | – | – | > 100 µM | – | > 100 µM | – | –
CC(N)(/C=C/c1ccccc1)C(=O)O (centres undefined) | – | > 100 µM | – | > 100 µM | – | > 100 µM | – | > 100 µM | – | > 100 µM | – | > 100 µM | – | > 100 µM | – | > 100 µM | – | – | – | > 100 µM
Cc1ccc(-c2cc3c4c(nc5ccccc53)C(=O)c3cccnc3-c4n2)cc1 | 17.8 µM | 32.6 µM | 12.4 µM | 25.7 µM | 4.02 µM | 16.2 µM | 15 µM | 38 µM | 29.7 µM | > 100 µM | 5.7 µM | > 51.1 µM | 1.35 µM | > 100 µM | 11.4 µM | 37.6 µM | 17.2 µM | 33.2 µM | – | –
O=C(/C(=C/c1ccc([N+](=O)[O-])cc1)SCc1ccc(Cl)cc1)c1ccc(F)cc1 | 3.22 µM | 12.3 µM | 4.02 µM | 14.4 µM | 49.5 µM | > 100 µM | 7.9 µM | 23.1 µM | – | – | 1.71 µM | 4.91 µM | 2.82 µM | 11.1 µM | 3.17 µM | 12.7 µM | 2.39 µM | 5.41 µM | 2.01 µM | > 26.5 µM
Nc1nc(Cl)cc(NCC(O)CO)n1 (centres undefined) | – | > 100 µM | – | > 100 µM | – | > 100 µM | – | > 100 µM | – | – | – | > 100 µM | – | > 100 µM | – | > 100 µM | – | > 100 µM | – | > 100 µM
CCCCCCCCCCCC(=O)N1CCN(C(C)=O)CC1 | 26.9 µM | 52.9 µM | 26.6 µM | 63 µM | 28 µM | > 100 µM | 19.2 µM | 35.7 µM | 19.9 µM | 38.9 µM | 25.2 µM | 46.6 µM | – | – | 29.3 µM | > 100 µM | 14.8 µM | 28.1 µM | 22 µM | 53.5 µM
COc1cc(-c2oc3c(OC)cc(OC)c(O)c3c(=O)c2OC)cc(OC)c1OC | – | > 100 µM | – | 7.55 µM | – | > 100 µM | – | – | – | > 100 µM | – | > 100 µM | – | > 100 µM | – | 32.7 µM | – | > 100 µM | – | > 100 µM
COc1ccc(Sc2nc3cc(N)cc(N)c3nc2-c2ccccc2)cc1 | 33.2 µM | 95 µM | > 100 µM | > 100 µM | 42.4 µM | > 100 µM | – | – | 9.71 µM | > 100 µM | 26.5 µM | > 100 µM | 4.25 µM | > 100 µM | > 100 µM | > 100 µM | – | – | – | –
N/C(=N/N=C/c1ccccc1)N/N=C\c1ccccc1 | 6.84 µM | 27.2 µM | 3.96 µM | 32.4 µM | 3.79 µM | > 100 µM | 3.58 µM | 43.9 µM | 5.02 µM | > 100 µM | 3.86 µM | > 100 µM | 3.9 µM | 23 µM | 6.69 µM | > 100 µM | 7.21 µM | 37.8 µM | – | –
COc1cccc(/C=N/NC(=O)c2ccccc2N2CCCC2)c1O | 15 µM | 88.1 µM | 4.88 µM | > 100 µM | 18.8 µM | > 100 µM | 54 µM | > 100 µM | 3.97 µM | > 100 µM | 4.08 µM | > 100 µM | – | – | 5.49 µM | > 100 µM | 47 µM | > 100 µM | 4.2 µM | > 100 µM
CCCNCC(=O)O[C@]1(CC)C(=O)OCc2c1cc1n(c2=O)Cc2cc3ccccc3nc2-1 | – | 4.1 µM | – | 2.1 µM | – | 1.98 µM | – | 3.68 µM | – | – | – | – | – | 0.553 µM | – | 8.33 µM | – | 4.36 µM | – | –
NC(N)=NC(N)=Nc1cnccn1 | – | > 100 µM | – | > 100 µM | – | > 100 µM | – | > 100 µM | – | > 100 µM | – | > 100 µM | – | > 100 µM | – | > 100 µM | – | > 100 µM | – | –
CC1=NN(c2ccc(S(=O)(=O)O)cc2)C(=O)/C1=C/c1ccc(Cl)cc1 | – | > 100 µM | – | > 100 µM | – | > 100 µM | – | > 100 µM | – | > 100 µM | – | > 100 µM | – | > 100 µM | – | > 100 µM | – | – | – | > 100 µM
CC[C@@]1(O)C(=O)OCc2c1cc1n(c2=O)Cc2cc3cccc([N+](=O)[O-])c3nc2-1 | 4.35 µM | > 100 µM | 0.346 µM | 16 µM | 0.6 µM | 41.5 µM | 6.11 µM | 24.8 µM | – | – | – | – | 0.365 µM | > 100 µM | 0.857 µM | > 100 µM | 4.92 µM | 31.8 µM | – | –
COc1ccc2c(c1)oc(=O)c1cc(OC)ccc12 | > 100 µM | > 100 µM | > 100 µM | > 100 µM | > 100 µM | > 100 µM | > 100 µM | > 100 µM | > 100 µM | > 100 µM | > 100 µM | > 100 µM | – | – | > 100 µM | > 100 µM | > 100 µM | > 100 µM | – | –
